Test results from patent US7169932B2 (priority 2001, dated 2007).
“And” between values parts separate entries of the source, which are not always exact repeats. Equal entries are not always repeated. Where two headings read alike, the source gives them in different places.

Legend:
[1] = target: T1, HIV-1 protease (Q7S) (Human immunodeficiency virus type 1 group M subtype B, UniProt P04585, Q495S); test: HIV-1 Protease RET Assay; type: biochemical; settings: RET assay, Q7S enzyme, pH 4.8, 37 C
T1 construct: made in house
Procedure, shortened: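 Ki values came from a RET assay on refolded Q7S protease (2 nM active dimer) cleaving RE(EDANS)SQNYPIVQK(DABCYL)R at 5 μM, read at ex 340/em 490 nm. Reactions ran 12 min at 37 C in 0.1M sodium acetate pH 4.8, 1M NaCl, 5 mM DTT, 10% DMSO; curves were fit with the Morrison tight-binding equation.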

[2] = tested on: 46I, 84V, 90M virus; test: Phenotypic susceptibility assay at Virologic, Inc.; type: cell-based, HIV-1; settings: Human immunodeficiency virus 1
Protocol: (§1) Compounds were tested in phenotypic susceptibility assays at Virologic, Inc., (See Petropoulos C. J., Parkin N. T., Limoli K. L., Lie Y. S., Wrin T., Huang W., Tian H., Smith D., Winslow G. A., Capon D J, Whitcomb J M. 2000, “A novel phenotypic drug susceptibility assay for human immunodeficiency virus type 1,” Antimicrob Agents Chemother 44(4):920–928) or using the assay described here. MT-2 cells were infected with either HIV-1 NL4–3 or HIV-1 NL4–3(184V/L90M) and incubated in the presence of serial 0.5 log dilutions of test compounds. Three days later, culture supernatants were collected and virus production, as determined by p24 ELISA, was assayed. Percent inhibition was calculated as p24 concentration in compound-treated samples as compared to infected, compound-free controls. Inhibition of viral replication is determined by measuring reduction in HIV p24 present in the culture supernatant, using a Beckman-Coulter p24 HIV-1 Ag EIA kit and following the supplied protocol. Absorbance is read on a MRX microplate reader (Dynex Technologies). The EC50 was calculated as the concentration of compound that effected a decrease in the p24 production by infected, compound-treated cells to 50% of that produced by infected, compound-free cells.

[3] = tested on: HIV-1; test: Cytopathic Effect (CPE) Inhibition Assay (XTT dye reduction); type: cell-based; settings: Human immunodeficiency virus 1, 144 h, read-out: Ave CPE EC50 (mM), protection of infected cells, six days, XTT
Procedure, shortened: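 CEM-SS or MT-2 cells infected with HIV-1 RF or NL4–3 (moi 0.025–0.819), 2×10^4 cells/well, incubated six days with half-log compound dilutions. Viability read by XTT formazan at 450 nm; EC50 is the concentration restoring 50% of uninfected-control formazan, CC50 from uninfected treated cells, therapeutic index CC50/EC50.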

[4] = tested on: HIV-1 NL4–3 or HIV-1 NL4–3(184V/L90M); test: Susceptibility assay, p24 ELISA in infected MT-2 cells; type: cell-based; settings: Human immunodeficiency virus 1, MT2, 72 h, read-out: EC50 or IC50 (mM)
Protocol: T-cell lines, CEM-SS, and MT-2, and viruses HIV-1 RF and HIV-1 NL4–3 (pNL4–3) were obtained from the National Institutes of Health (AIDS Research and Reference Reagent Program, Bethesda, Md.).
as §1

SMILES | Ki ([1]; Ave. Ki (nM)) | IC50 [2] [nM] | EC50 [3] [nM] | EC50 [4] [nM] | melting point [°C] | Ki ([1]; read-out: Ave. Ki) [nM]
Cc1ccccc1CNC(=O)[C@H]1N(C(=O)[C@@H](O)[C@H](Cc2ccccc2)NC(=O)N2CC[C@H](O)C2)CSC1(C)C (stereo in doubt) [Example B8, 3-(2-hydroxy-3-{[1-(3-hydroxy-pyrrolidin-yl)-methanoyl]-amino}-4-phenyl-butanoyl)-5,5-dimethyl-thiazolidine-4-carboxylic acid-2-methyl-benzylamide] | 0.31 nM and 1.5 nM | 405 | – | – | – | –
Cc1ccccc1CN(C)C(=O)[C@H]1N(C(=O)[C@@H](O)[C@H](Cc2ccccc2)NC(=O)c2cccc(O)c2C)CSC1(C)C [Example A7, 3-[2-Hydroxy-3-(3-hydroxy-2-methyl-benzoylamino)-4-phenyl-butyryl]-5,5-dimethyl-thiiazolidine-4-carboxylic acid methyl-(2-methyl-benzyl)-amide] | 0.49 nM | – | 104 | 832 | – | –
C=CCNC(=O)[C@H]1N(C(=O)[C@@H](O)[C@H](Cc2ccccc2)NC(=O)c2cccc(O)c2C)CSC1(C)C [Example A14, (R)-3-((2S,3S)-2-Hydroxy-3-{[1-(3-hydroxy-2-methyl-phenyl)-methanoyl]-amino}-4-phenyl-butanoyl)-5,5-dimethyl-thiazolidine-4-carboxylic acid allylamide] | 0.44 nM | 71 | 52 | – | – | –
C#CCNC(=O)[C@H]1N(C(=O)[C@@H](O)[C@H](Cc2ccccc2)NC(=O)c2cccc(O)c2C)CSC1(C)C [Example A17, 3-(2-Hydroxy-3-{[1-(3-hydroxy-2-methyl-phenyl)-methanoyl]-amino}-4-phenyl-butanoyl)-5,5-dimethyl-thiazolidine-4-carboxylic acid prop-2-ynylamide] | < 0.1 nM | 102 | 45 | – | – | –
Cc1c(O)cccc1C(=O)N[C@@H](Cc1ccccc1)[C@H](O)C(=O)N1CSC(C)(C)[C@H]1C(=O)NCc1c(F)cccc1C(F)(F)F [Example A24, (R)-3-((2S,3S)-2-Hydroxy-3-{[1-(3-hydroxy-2-methyl-phenyl)-methanoyl]-amino}-4-phenyl-butanoyl)-5,5-dimethyl-thiazolidine-4-carboxylic acid fluoro-trifluoromethyl-benzylamide] | 0.18 nM | – | 104 | 831 | – | –
Cc1c(O)cccc1C(=O)N[C@@H](Cc1ccccc1)[C@H](O)C(=O)N1CSC(C)(C)[C@H]1C(=O)NCC#N [Example A30, (R)-3-((2S,3S)-2-Hydroxy-3-{[1-(3-hydroxy-2-methyl-phenyl)-methanoyl]-amino}-4-phenyl-butanoyl)-5,5-dimethyl-thiazolidine-4-carboxylic acid cyanomethylamide] | 1.1 nM | 829 | 507 | – | – | –
CC(C)=CCNC(=O)[C@H]1N(C(=O)[C@@H](O)[C@H](Cc2ccccc2)NC(=O)c2cccc(O)c2C)CSC1(C)C [Example A32, (R)-3-((2S,3S)-2-Hydroxy-3-{[1-(3-hydroxy-2-methyl-phenyl)-methanoyl]-amino}-4-phenyl-butanoyl)-5,5-dimethyl-thiazolidine-4-carboxylic acid (3-methyl-but-2-enyl)-amide] | < 0.1 nM | – | 45 | 486 | – | –
C/C=C(\C)CNC(=O)[C@H]1N(C(=O)[C@@H](O)[C@H](Cc2ccccc2)NC(=O)c2cccc(O)c2C)CSC1(C)C [Example A35, (R)-3-((2S,3S)-2-Hydroxy-3-{[1-(3-hydroxy-2-methyl-phenyl)-methanoyl]-amino}-4-phenyl-butanoyl)-5,5-dimethyl-thiazolidine-4-carboxylic acid ((E)-2-methyl-but-2-enyl)-amide] | < 0.1 nM | – | 17 | 63 | – | –
C/C=C/CNC(=O)[C@H]1N(C(=O)[C@@H](O)[C@H](Cc2ccccc2)NC(=O)c2cccc(O)c2C)CSC1(C)C [Example A38, (R)-3-((2S,3S)-2-Hydroxy-3-{[1-(3-hydroxy-2-methyl-phenyl)-methanoyl]-amino}-4-phenyl-butanoyl)-5,5-dimethyl-thiazolidine-4-carboxylic acid (E)-but-2-enylamide] | 0.17 nM | – | 78 | 401 | – | –
Cc1c(O)cccc1C(=O)N[C@@H](Cc1ccccc1)[C@H](O)C(=O)N1CSC(C)(C)[C@H]1C(=O)NCc1cccc(O)c1 [Example A42, (R)-3-((2S,3S)-2-Hydroxy-3-{[1-(3-hydroxy-2-methyl-phenyl)-methanoyl]-amino}-4-phenyl-butanoyl)-5,5-dimethyl-thiazolidine-4-carboxylic acid 3-hydroxy-benzylamide] | 0.23 nM | – | 126 | 307 | – | –
Cc1c(O)cccc1C(=O)N[C@@H](Cc1ccccc1)[C@H](O)C(=O)N1CSC(C)(C)[C@H]1C(=O)NCc1ccccc1O [Example A44, (R)-3-((2S,3S)-2-Hydroxy-3-{[1-(3-hydroxy-2-methyl-phenyl)-methanoyl]-amino}-4-phenyl-butanoyl)-5,5-dimethyl-thiazolidine-4-carboxylic acid 2-hydroxy-benzylamide] | 0.14 nM | – | 22 | 472 | – | –
CCCN(C)C(=O)[C@H]1N(C(=O)[C@@H](O)[C@H](Cc2ccccc2)NC(=O)c2cccc(O)c2C)CSC1(C)C [Example A46, (R)-3-((2S,3S)-2-Hydroxy-3-{[1-(3-hydroxy-2-methyl-phenyl)-methanoyl]-amino}-4-phenyl-butanoyl)-5,5-dimethyl-thiazolidine-4-carboxylic acid methyl-propyl-amide] | 0.31 nM | – | 91 | 790 | 108 to 110 | –
Cc1ccccc1CNC(=O)[C@H]1N(C(=O)[C@@H](O)[C@H](Cc2ccccc2)NC(=O)c2ccccc2C)CSC1(C)C [Example B16, 3-[2-Hydroxy-3-(2-methyl-benzoylamino)-4-phenyl-butyryl]-5,5-dimethyl-thiazolidine-4-carboxylic acid 2-methyl-benzylamide] | < 0.1 nM | – | 298 | 1750 | – | –
Cc1ccccc1CNC(=O)C1N(C(=O)C(O)C(Cc2ccccc2)NC(=O)c2cccc(C)c2C)CSC1(C)C (stereo not drawn) [Example B17, 3-[3-(2,3-Dimethyl-benzoylamino)-2-hydroxy-4-phenyl-butyryl]-5,5-dimethyl-thiazolidine-4-carboxylic acid 2-methyl-benzylamide] | 0.42 nM | – | 534 | 1580 | – | –
Cc1ccccc1CNC(=O)C1N(C(=O)C(O)C(Cc2ccccc2)NC(=O)c2c(C)c(=O)on2C)CSC1(C)C (stereo not drawn) [Example B19, 2,4-Dimethyl-5-oxo-2,5-dihydro-isoxazole-3-carboxylic acid {1-benzyl-3-[5,5-dimethyl-4-(2-methyl-benzylcarbamoyl)-thiazolidin-3-yl]-2-hydroxy-3-oxo-propyl}-amide] | < 0.1 nM | – | 124 | 1370 | – | –
Cc1ccccc1CNC(=O)[C@H]1N(C(=O)[C@@H](O)[C@H](Cc2ccccc2)NC(=O)c2cccc(O)c2C)COC1(C)C [Example C6, (S)-3-((2S,3S)-2-Hydroxy-3-{[1-(3-hydroxy-2-methyl-phenyl)-methanoyl]-amino}-4-phenyl-butanoyl)-5,5-dimethyl-oxazolidine-4-carboxylic acid 2-methyl-benzylamide] | < 0.1 nM | – | 164 | 1480 | – | –
COCCCC(=O)[C@H]1N(C(=O)[C@@H](O)[C@H](Cc2ccccc2)NC(=O)c2cccc(O)c2C)CSC1(C)C [Example D3, N-{1-Benzyl-2-hydroxy-3-[4-(4-methoxy-butanoyl)-5,5-dimethyl-thiazolidin-3-yl]-3-oxo-propyl}-3-hydroxy-2-methyl-benzamide] | 0.5 nM | – | 162 | 1950 | – | –
C=CCNC(=O)[C@H]1N(C(=O)[C@@H](O)[C@H](Cc2ccccc2)NC(=O)c2cc(C)cc(O)c2C)CSC1(C)C [Example D4, (R)-3-[(2S, 3S)-2-Hydroxy-3-(3-hydroxy-2,5-dimethyl-benzoylamino)-4-phenyl-butyryl]-5,5-dimethyl-thiazolidine-4-carboxylic acid allylamide] | – | – | 16 | 1950 | – | 0.7
